These results are taken from ChEMBL document CHEMBL4196175, “First SAR Study for Overriding NRAS Mutant Driven Acute Myeloid Leukemia” (J Med Chem, 2018).

Activity calls are given as the source filed them. No cut-off for these calls is given here.

Series [1] concerns the target RAF proto-oncogene serine/threonine-protein kinase (Homo sapiens) (UniProt P04049). Particulars: 1 uM.
Description: Inhibition of human RAF1 at 1 uM relative to control
A further series has as its system OCI-AML-3. As to the kind of experiment: Growth inhibition of ACK1/GCK knockdown human OCI-AML3 cells harboring NRAS-Q61L mutant at 0.5 uM after 72 hrs by celltiter-glo assay. The class given is functional, cell-based.
Series [2] deals with Proto-oncogene tyrosine-protein kinase receptor Ret (Homo sapiens) (UniProt P07949). The series is described as follows: Inhibition of human RET at 1 uM relative to control.
The target of series [3] is Tyrosine-protein kinase ABL2 (Homo sapiens) (UniProt P42684). As to the kind of experiment: Inhibition of human ABL2 at 1 uM relative to control.
The target of series [4] is Tyrosine-protein kinase CSK (Homo sapiens) (UniProt P41240). As to the kind of experiment: Inhibition of human CSK at 1 uM relative to control.
Series [5] addresses Epithelial discoidin domain-containing receptor 1 (Homo sapiens) (UniProt Q08345). As to the kind of experiment: Inhibition of human DDR1 at 1 uM relative to control.
In series [6] the target is Platelet-derived growth factor receptor beta (Homo sapiens) (UniProt P09619). As to the kind of experiment: Inhibition of human PDGFRbeta at 1 uM relative to control.
In series [7] the target is Ephrin type-A receptor 1 (Homo sapiens) (UniProt P21709). As to the kind of experiment: Inhibition of human EphA1 at 1 uM relative to control.
For series [8], the target named is Platelet-derived growth factor receptor alpha (Homo sapiens) (UniProt P16234). As to the kind of experiment: Inhibition of human PDGFRa at 1 uM relative to control.
A short description of series [9]: AUClast in mouse at 10 mg/kg, po. The class given is ADME, organism-based. On the set-up: dose 10 mg/kg, time 0 - last, route oral. Particulars: in vivo.
In series [10] the target is Tyrosine-protein kinase Fyn (Homo sapiens) (UniProt P06241). The series is described as follows: Inhibition of human FYN at 1 uM relative to control.
For series [11], the target named is Vascular endothelial growth factor receptor 2 (Homo sapiens) (UniProt P35968). The series is described as follows: Inhibition of human KDR at 1 uM relative to control.

Sequence of Platelet-derived growth factor receptor beta (Homo sapiens) (P09619 whole entry): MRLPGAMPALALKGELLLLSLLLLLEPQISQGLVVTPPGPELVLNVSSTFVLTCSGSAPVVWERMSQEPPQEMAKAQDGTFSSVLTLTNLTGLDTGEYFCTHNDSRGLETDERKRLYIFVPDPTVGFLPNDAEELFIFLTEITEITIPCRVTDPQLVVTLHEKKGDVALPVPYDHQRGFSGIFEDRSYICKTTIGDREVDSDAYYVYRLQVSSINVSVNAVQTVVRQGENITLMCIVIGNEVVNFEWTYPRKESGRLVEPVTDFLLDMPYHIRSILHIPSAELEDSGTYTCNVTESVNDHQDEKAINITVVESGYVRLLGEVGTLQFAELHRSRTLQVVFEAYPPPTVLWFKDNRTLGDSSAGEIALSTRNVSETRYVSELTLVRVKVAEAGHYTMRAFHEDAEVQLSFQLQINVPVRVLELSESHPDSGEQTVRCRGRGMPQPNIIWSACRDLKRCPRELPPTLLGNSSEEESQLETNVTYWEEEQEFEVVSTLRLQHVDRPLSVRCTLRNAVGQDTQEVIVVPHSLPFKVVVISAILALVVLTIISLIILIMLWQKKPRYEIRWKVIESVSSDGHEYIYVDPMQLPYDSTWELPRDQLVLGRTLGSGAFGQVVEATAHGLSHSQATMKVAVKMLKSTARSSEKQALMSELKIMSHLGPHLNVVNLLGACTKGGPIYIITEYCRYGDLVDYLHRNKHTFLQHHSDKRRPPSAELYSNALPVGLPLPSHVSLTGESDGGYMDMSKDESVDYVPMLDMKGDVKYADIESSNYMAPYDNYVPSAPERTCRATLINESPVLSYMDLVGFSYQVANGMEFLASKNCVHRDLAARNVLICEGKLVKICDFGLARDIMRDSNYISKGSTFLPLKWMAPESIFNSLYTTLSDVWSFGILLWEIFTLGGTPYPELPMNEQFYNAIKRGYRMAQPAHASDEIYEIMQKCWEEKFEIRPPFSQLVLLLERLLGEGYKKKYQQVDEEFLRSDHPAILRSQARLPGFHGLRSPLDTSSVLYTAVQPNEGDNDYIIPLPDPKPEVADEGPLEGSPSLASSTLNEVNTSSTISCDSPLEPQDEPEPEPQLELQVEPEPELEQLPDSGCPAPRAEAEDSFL
Sequence of Tyrosine-protein kinase ABL2 (Homo sapiens) (P42684 whole entry): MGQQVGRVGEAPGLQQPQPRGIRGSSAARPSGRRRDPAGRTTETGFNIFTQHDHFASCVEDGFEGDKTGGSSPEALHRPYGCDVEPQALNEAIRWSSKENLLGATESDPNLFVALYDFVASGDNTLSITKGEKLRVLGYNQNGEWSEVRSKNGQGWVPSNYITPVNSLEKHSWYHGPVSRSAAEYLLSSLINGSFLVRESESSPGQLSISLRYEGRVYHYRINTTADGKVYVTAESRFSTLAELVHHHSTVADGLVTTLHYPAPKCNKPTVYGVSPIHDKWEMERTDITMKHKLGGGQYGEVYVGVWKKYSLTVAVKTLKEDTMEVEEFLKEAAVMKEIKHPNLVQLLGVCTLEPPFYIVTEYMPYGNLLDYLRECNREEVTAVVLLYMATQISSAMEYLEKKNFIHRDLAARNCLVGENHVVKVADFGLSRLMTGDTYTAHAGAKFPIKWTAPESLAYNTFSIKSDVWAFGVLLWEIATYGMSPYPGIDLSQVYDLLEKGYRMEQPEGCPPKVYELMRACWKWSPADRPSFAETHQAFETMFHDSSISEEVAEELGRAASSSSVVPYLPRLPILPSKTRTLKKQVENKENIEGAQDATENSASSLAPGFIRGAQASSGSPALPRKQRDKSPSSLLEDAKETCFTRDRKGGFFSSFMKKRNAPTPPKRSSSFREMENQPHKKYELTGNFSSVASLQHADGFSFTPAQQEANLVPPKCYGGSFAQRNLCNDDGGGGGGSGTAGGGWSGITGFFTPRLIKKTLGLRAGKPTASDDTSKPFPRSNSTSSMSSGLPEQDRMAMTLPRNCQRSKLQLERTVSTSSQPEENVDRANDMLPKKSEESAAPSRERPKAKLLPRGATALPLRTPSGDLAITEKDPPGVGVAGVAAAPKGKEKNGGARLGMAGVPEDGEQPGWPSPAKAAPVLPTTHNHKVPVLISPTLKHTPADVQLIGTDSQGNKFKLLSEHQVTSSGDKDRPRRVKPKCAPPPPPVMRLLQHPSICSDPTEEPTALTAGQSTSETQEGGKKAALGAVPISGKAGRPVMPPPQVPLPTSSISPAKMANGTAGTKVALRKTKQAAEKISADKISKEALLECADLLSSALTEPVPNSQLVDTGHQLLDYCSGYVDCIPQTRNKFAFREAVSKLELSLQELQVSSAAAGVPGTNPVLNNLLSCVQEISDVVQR
Sequence of Ephrin type-A receptor 1 (Homo sapiens) (P21709 whole entry): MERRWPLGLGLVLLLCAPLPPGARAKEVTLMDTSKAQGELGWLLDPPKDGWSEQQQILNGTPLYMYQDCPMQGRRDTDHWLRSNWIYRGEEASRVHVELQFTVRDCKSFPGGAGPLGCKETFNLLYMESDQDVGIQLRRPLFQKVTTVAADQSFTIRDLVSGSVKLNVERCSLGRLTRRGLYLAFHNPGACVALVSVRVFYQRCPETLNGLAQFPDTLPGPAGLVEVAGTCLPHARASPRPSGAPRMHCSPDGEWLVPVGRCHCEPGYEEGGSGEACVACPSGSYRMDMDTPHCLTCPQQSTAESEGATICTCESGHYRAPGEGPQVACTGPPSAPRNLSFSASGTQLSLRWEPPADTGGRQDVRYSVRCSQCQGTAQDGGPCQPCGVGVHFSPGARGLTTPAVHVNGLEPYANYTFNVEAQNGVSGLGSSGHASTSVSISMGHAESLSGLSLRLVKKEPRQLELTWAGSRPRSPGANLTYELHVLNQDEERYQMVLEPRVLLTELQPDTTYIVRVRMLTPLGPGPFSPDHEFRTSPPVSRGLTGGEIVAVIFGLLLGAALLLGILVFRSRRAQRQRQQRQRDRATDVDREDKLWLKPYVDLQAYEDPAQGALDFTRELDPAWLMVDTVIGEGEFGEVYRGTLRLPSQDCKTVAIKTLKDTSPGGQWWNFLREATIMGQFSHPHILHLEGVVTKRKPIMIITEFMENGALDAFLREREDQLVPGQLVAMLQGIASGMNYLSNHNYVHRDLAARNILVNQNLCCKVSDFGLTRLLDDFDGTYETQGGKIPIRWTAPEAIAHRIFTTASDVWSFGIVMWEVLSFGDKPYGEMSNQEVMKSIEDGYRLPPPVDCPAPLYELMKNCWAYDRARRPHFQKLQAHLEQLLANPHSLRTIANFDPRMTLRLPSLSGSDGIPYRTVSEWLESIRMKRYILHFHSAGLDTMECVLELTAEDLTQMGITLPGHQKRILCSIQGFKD
Sequence of RAF proto-oncogene serine/threonine-protein kinase (Homo sapiens) (P04049 whole entry): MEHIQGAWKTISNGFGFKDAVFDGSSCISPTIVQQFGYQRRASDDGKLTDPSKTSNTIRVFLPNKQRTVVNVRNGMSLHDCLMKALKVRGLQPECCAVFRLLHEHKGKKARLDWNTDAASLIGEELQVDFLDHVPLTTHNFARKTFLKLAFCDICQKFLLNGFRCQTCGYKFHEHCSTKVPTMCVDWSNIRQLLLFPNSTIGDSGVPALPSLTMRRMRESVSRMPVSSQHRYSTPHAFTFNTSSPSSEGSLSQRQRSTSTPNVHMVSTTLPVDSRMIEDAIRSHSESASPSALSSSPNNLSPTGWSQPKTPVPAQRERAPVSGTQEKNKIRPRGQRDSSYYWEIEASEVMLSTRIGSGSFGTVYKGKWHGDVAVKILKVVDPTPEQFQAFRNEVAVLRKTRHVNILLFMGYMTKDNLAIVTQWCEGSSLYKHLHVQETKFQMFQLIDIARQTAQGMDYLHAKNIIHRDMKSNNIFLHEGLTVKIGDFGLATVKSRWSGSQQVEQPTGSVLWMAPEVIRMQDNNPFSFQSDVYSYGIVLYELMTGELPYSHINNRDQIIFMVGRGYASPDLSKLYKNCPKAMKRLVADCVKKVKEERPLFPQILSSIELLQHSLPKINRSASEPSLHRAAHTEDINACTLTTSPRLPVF
Sequence of Platelet-derived growth factor receptor alpha (Homo sapiens) (P16234 whole entry): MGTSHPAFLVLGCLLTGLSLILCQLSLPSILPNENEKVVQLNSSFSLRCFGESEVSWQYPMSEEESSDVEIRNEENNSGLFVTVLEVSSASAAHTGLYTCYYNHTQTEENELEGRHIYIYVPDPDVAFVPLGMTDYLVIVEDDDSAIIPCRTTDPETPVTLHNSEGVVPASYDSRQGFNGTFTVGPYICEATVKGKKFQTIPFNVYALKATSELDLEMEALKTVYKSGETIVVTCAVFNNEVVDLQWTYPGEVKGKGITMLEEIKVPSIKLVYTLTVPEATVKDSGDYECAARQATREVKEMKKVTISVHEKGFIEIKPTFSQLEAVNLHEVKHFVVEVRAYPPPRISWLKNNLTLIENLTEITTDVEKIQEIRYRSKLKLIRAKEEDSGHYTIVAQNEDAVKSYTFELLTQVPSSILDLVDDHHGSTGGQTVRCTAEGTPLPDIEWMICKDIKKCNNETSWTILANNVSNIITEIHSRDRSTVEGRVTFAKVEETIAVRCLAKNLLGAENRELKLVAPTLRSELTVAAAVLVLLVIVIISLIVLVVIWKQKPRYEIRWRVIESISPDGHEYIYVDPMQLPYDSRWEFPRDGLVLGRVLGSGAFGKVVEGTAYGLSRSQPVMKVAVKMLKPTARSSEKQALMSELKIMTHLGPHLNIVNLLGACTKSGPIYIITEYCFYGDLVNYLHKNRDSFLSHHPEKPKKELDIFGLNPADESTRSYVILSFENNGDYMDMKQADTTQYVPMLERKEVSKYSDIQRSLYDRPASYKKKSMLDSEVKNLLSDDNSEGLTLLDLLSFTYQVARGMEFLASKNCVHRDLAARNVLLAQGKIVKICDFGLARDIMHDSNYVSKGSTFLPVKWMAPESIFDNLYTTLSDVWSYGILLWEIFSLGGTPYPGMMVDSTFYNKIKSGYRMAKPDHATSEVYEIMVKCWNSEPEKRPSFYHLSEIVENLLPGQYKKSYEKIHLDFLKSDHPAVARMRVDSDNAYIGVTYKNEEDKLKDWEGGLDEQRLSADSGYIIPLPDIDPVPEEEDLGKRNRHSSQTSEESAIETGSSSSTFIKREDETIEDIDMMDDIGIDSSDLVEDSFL

By inhibition is commonly meant the relative decrease from the control value, in per cent. The AUC(0-t) is exposure summed from dosing to a finite time, without extrapolation to infinity. With `Cc1ccc(NC(=O)c2cccc(C(F)(F)F)c2)cc1N1Cc2cnc(N)nc2N(C)C1=O`, the inhibition turned out to be 99.4% in [1]; 98.7% in [2]; 98.3% in series [3]; 98.9% in series [4]; 97.8% in series [5]; 98.1% in series [6]. For the same compound, the inhibition was found to be 90.7% in series [7], 95% in series [8], 99.2% in series [10] and 96.4% in series [11]. Besides, the “growth inhibition (GI)” value in the series with OCI-AML-3 is “Active”. The compound further returned an AUC(0-t) in [9] of 36400 ng·h/mL.
